# In patent US20240246946A1, “MODULATORS OF TREX1” (Constellation Pharmaceuticals, Inc., priority 2021, published 2024):
# Key:
# full length human TREX1 = biological target: T1, full length human TREX1 (Homo sapiens, UniProt Q9NSU2); test: hTREX1 Biochemical Assay (fluorescence, dsDNA substrate degradation); conditions: biochemical, read-out: hTREX1 IC50
# T1 construct: N-terminally His-Tev tagged full length human TREX1; made in house; host or cells: E. coli
# T1 sequence (Q9NSU2 1-314): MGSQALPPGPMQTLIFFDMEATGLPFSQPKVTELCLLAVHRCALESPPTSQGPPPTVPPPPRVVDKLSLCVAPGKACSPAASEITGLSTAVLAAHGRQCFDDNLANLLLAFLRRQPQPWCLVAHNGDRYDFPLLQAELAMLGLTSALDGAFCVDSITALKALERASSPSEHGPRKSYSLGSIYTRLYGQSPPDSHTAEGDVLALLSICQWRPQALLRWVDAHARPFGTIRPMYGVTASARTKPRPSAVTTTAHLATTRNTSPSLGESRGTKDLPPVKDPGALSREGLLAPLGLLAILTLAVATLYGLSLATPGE
# Summary of the method: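 Fluorescence rises as enzyme degrades a quenched TEX615-labelled dsDNA substrate (60 nM) in 50 mM Tris, 150 mM NaCl, 5 mM MgCl2, pH 7.4. Full-length His-Tev-tagged human TREX1, 4 pM, sits with compound 4 hours at 25° C before substrate; reaction 18 hours, stopped with EDTA.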
# [1] = biological target: T2, human TREX2 (residues M44-A279) (Homo sapiens, UniProt Q9BQ50); test: hTREX2 Biochemical Assay (fluorescence, dsDNA substrate degradation); conditions: biochemical selectivity for hTREX1 vs hTREX2
# T2 construct: human TREX2 (residues M44-A279, expressed in E. coli); made in house; host or cells: E. coli
# T2 sequence (Q9BQ50 44-279 isoform Q9BQ50-1): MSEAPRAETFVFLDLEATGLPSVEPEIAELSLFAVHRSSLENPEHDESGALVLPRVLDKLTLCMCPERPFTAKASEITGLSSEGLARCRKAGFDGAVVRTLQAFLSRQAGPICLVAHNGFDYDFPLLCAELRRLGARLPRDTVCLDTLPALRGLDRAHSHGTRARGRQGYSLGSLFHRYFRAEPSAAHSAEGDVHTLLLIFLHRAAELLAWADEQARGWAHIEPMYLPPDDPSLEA
# Procedure: Degradation of the dsDNA liberates free fluorophore to produce a fluorescent signal. Specifically, 7.5 μL of N-terminally His-Tev tagged human TREX2 (residues M44-A279, expressed in E. coli and purified in house) in reaction buffer (50 mM Tris, 150 mM NaCl, 2 mM DTT, 0.1 mg/mL BSA, 0.01% (w/v) Tween-20, 5 mM MgCl2, pH 7.4) was added to a 384-well Black ProxiPlate Plus (PerkinElmer) which already contained compound (150 nL) at varying concentrations as a 10 point dose-response in DMSO. The plate was incubated at 25° C. for 4 hours. Reactions were initiated by adding 7.5 μL of dsDNA substrate (Strand A: 5′ TEX615/GCT AGG CAG 3′; Strand B: 5′ CTG CCT AGC/IAbRQSp (IDT)) in reaction buffer. Final concentrations were 50 pM TREX2, 60 nM dsDNA substrate in reaction buffer with 1.0% DMSO (v/v). After 18 hours at 25° C., reactions were quenched by the addition of 2 μL of 500 mM EDTA. Final concentrations in the quenched reaction mixture were 44 pM TREX2, 53 nM DNA and 59 mM EDTA in a volume of 17 μL. After a 5-minute incubation at room temperature, plates were read in an EnVision plate reader (PerkinElmer) measuring fluorescence at 615 nm following excitation w/570 nm light.
# full length mouse TREX1 = biological target: T3, full length mouse TREX1 (Mus musculus, UniProt Q91XB0); test: mTREX1 Biochemical Assay (fluorescence, dsDNA substrate degradation); conditions: biochemical, read-out: mTREX1 IC50
# T3 construct: N-terminally His-Tev tagged full length mouse TREX1; made in house; host or cells: E. coli
# T3 sequence (Q91XB0 1-314): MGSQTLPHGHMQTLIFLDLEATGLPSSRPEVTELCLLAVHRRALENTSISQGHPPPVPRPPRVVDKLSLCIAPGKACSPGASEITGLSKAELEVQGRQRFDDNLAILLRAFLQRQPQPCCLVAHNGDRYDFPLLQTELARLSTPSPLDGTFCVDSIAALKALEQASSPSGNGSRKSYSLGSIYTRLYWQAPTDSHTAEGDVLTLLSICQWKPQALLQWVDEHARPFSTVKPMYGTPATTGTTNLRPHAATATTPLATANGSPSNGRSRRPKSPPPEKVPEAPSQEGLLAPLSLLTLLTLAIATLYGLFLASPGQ
# Summary of the method: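 Reaction run 18 h at 25° C. with 60 nM TEX615/quencher-labelled dsDNA and 6 pM mouse TREX1 in Tris buffer (pH 7.4, 5 mM MgCl2, 1.0% DMSO), enzyme having sat 4 h with compound across 10 concentrations. EDTA quench; substrate degradation measured as fluorescence increase.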
IC50 (full length human TREX1),hTREX1 vs hTREX2 selectivity [1],IC50 (full length mouse TREX1),Compound
> 10 nM,A (A = <25 fold selective for hTREX1),> 10 nM,"CC(c1nc(C(=O)Nc2cnoc2)c(O)c(=O)n1C)C(c1ccccc1Cl)n1nccc1C(N)=O (single isomer, unassigned) [Example 147 D1E2]"
> 10 nM,A (A = <25 fold selective for hTREX1),> 10 nM,"Cc1ncc(C(c2ccccc2Cl)C(C)c2nc(C(=O)Nc3cnoc3)c(O)c(=O)n2C)cn1 (single isomer, unassigned) [Example 44 D2E2]"
> 10 nM,A (A = <25 fold selective for hTREX1),> 10 nM,"Cc1cc(C(c2cc(F)ccc2Cl)C(C)c2nc(C(=O)Nc3cnoc3)c(O)c(=O)n2C)n(C)n1 (single isomer, unassigned) [Example 113 D1E2]"
> 10 nM,A (A = <25 fold selective for hTREX1),> 10 nM,"CCc1cnn(C(c2ccccc2Cl)C(C)c2nc(C(=O)Nc3cnoc3)c(O)c(=O)n2C)c1 (single isomer, unassigned) [Example 134 D1E2]"
1 to 10 nM,A (A = <25 fold selective for hTREX1),> 10 nM,"COCCn1cc(C(c2cc(F)ccc2Cl)C(C)c2nc(C(=O)Nc3cnoc3)c(O)c(=O)n2C)cn1 (single isomer, unassigned) [Example 97 D1E2]"
> 10 nM,A (A = <25 fold selective for hTREX1),> 10 nM,"CC(c1nc(C(=O)Nc2cnoc2)c(O)c(=O)n1C)C(c1cc(F)ccc1Cl)c1cn(C)nc1C#N (single isomer, unassigned) [Example 89 D1E1]"
> 10 nM,A (A = <25 fold selective for hTREX1),> 10 nM,"CC(c1nc(C(=O)Nc2cnoc2)c(O)c(=O)n1C)C(c1ccccc1Cl)n1cc2ccccc2n1 (single isomer, unassigned) [Example 141 D1E2]"
> 10 nM,A (A = <25 fold selective for hTREX1),> 10 nM,"Cc1cc(C(c2cc(F)ccc2C#N)C(C)c2nc(C(=O)Nc3cnoc3)c(O)c(=O)n2C)nn1C (single isomer, unassigned) [Example 112 D1E2]"
> 10 nM,A (A = <25 fold selective for hTREX1),> 10 nM,"Cc1ncc(C(c2cc(F)ccc2C#N)C(C)c2nc(C(=O)Nc3cnoc3)c(O)c(=O)n2C)nc1C (single isomer, unassigned) [Example 124 D2E2]"
1 to 10 nM,A (A = <25 fold selective for hTREX1),> 10 nM,"CC(c1nc(C(=O)Nc2cnoc2)c(O)c(=O)n1C)C(c1cnn(CC(C)(C)O)c1)c1ccccc1Cl (single isomer, unassigned) [Example 86 D1E2]"
> 10 nM,A (A = <25 fold selective for hTREX1),> 10 nM,"Cc1cnc(C)c(C(c2cc(F)ccc2Cl)C(C)c2nc(C(=O)Nc3cnoc3)c(O)c(=O)n2C)n1 (single isomer, unassigned) [Example 121 D1E2]"
> 10 nM,A (A = <25 fold selective for hTREX1),> 10 nM,"CCn1c(C(C)C(c2cnn(C)c2)c2ccccc2C#N)nc(C(=O)Nc2cnoc2)c(O)c1=O (single isomer, unassigned) [Example 149 D1E1]"
> 10 nM,A (A = <25 fold selective for hTREX1),> 10 nM,"Cc1nccc(C(c2ccccc2C#N)C(C)c2nc(C(=O)Nc3cnoc3)c(O)c(=O)n2C)n1 (single isomer, unassigned) [Example 83 D2E2]"
> 10 nM,C (C = >50 fold selective for hTREX1),> 10 nM,"CC(c1nc(C(=O)Nc2cnoc2)c(O)c(=O)n1C)C(c1cnn(C)c1)c1ccc(O)cc1C#N (single isomer, unassigned) [Example 80 D1E2]"
> 10 nM,A (A = <25 fold selective for hTREX1),> 10 nM,"CC(c1nc(C(=O)Nc2cnoc2)c(O)c(=O)n1C)C(c1ccccc1Cl)c1cnn(C)c1C#N (single isomer, unassigned) [Example 96 D2E1]"
> 10 nM,C (C = >50 fold selective for hTREX1),> 10 nM,"CC(c1nc(C(=O)Nc2cnoc2)c(O)c(=O)n1C)C(c1cnn(CCCN(C)C)c1)c1ccccc1C#N (single isomer, unassigned) [Example 34 D2E1]"
> 10 nM,A (A = <25 fold selective for hTREX1),> 10 nM,"CC(c1nc(C(=O)Nc2cnoc2)c(O)c(=O)n1C)C(c1ccccc1Cl)c1cn(C)nc1F (single isomer, unassigned) [Example 130 D1E2]"
> 10 nM,A (A = <25 fold selective for hTREX1),> 10 nM,"CCn1cc(C(c2cc(F)ccc2Cl)C(C)c2nc(C(=O)Nc3cnoc3)c(O)c(=O)n2C)cn1 (single isomer, unassigned) [Example 60 D2E2]"
> 10 nM,A (A = <25 fold selective for hTREX1),> 10 nM,"CC(c1nc(C(=O)Nc2cnoc2)c(O)c(=O)n1C)C(c1cnc(C(F)(F)F)cn1)c1ccccc1C#N (single isomer, unassigned) [Example 118 D1E2]"
> 10 nM,A (A = <25 fold selective for hTREX1),> 10 nM,"Cc1cn(C(c2ccccc2Cl)C(C)c2nc(C(=O)Nc3cnoc3)c(O)c(=O)n2C)cn1 (single isomer, unassigned) [Example 142 D1E1]"
> 10 nM,A (A = <25 fold selective for hTREX1),> 10 nM,"CC(c1nc(C(=O)Nc2cnoc2)c(O)c(=O)n1C)C(c1ccccc1C#N)c1ccnn1C (single isomer, unassigned) [Example 1 D1E2]"

Compound,IC50 (full length human TREX1),hTREX1 vs hTREX2 selectivity [1],IC50 (full length mouse TREX1)
"COCCn1ncc(C(c2ccccc2C#N)C(C)c2nc(C(=O)Nc3cnoc3)c(O)c(=O)n2C)c1C (single isomer, unassigned) [Example 69 D2E2]",1 to 10 nM,B (B = 25 to 50-fold selective for hTREX1),> 10 nM
"CCn1cc(C(c2cc(F)ccc2C#N)C(C)c2nc(C(=O)Nc3cnoc3)c(O)c(=O)n2C)cn1 (single isomer, unassigned) [Example 17 D2E1]",> 10 nM,B (B = 25 to 50-fold selective for hTREX1),> 10 nM
"CCn1c(C(C)C(c2cnn(C)c2)c2ccccc2C#N)nc(C(=O)Nc2cnoc2)c(O)c1=O (single isomer, unassigned) [Example 149 D2E2]",> 10 nM,B (B = 25 to 50-fold selective for hTREX1),> 10 nM
"CCn1cc(C(c2ccccc2C#N)C(C)c2nc(C(=O)Nc3cnoc3)c(O)c(=O)n2C)cn1 (single isomer, unassigned) [Example 13 D1E2]",> 10 nM,B (B = 25 to 50-fold selective for hTREX1),> 10 nM
